Test results reported in patent publication US6916846B2, “Coumermycin analogs as chemical dimerizers of chimeric proteins” (Merck & Co. Inc., priority 2000, dated 2005).
Where two headings read alike, the source gives them in different places.

Assays:
[1] = system: STAT5b-GyrB fusion proteins
Method: To evaluate the effectiveness of the analogs of the present invention to act as chemical dimerizers of chimeric proteins, a BAF cell proliferation assay was performed.
BAF Cell Proliferation Assay
We have transfected BAF Cells with the human IL2 Receptor β chain. These transfected cells respond to human IL-2 by increasing their rate of cellular proliferation. This can be assayed by measuring the amount of tritiated thymidine that these cells incorporate into their DNA. One of the signaling proteins activated by IL-2 is the transcription factor STAT5b. This activation of STAT5b is responsible, in part, for the growth-promoting effects of IL-2.
STAT5b is activated by dimerization, an event that is dependent on its phosphorylation and which requires interaction of STAT5b with a ligand bound activated receptor. We can mimic this activation of STAT5b by transfecting BAF cells with a fusion protein consisting of the GyrB domain (the24 kDa amino-terminal fragment of bacterial DNA gyrase, amino acids 2-220) fused to the carboxy-terminus of STAT5b. Addition of the symmetrically dimeric antibiotic coumermycin artificially forces the dimerization of STAT5b-GyrB fusion proteins and results in an increased rate of cell growth that can be measured by the cell's ability to incorporate thymidine. This provides an assay to determine the ability of coumermycin analogs to promote dimerization of STAT5b-GyrB fusion proteins.
The assay is run as follows: BAF cells transfected with the human IL-2 receptor β chain and STAT5b-GyrB are washed twice in phosphate-buffered saline. They are then re-suspended in BAF cell media that lacks IL-2 and placed in a 96-well plate. Increasing amounts of coumermycin, or coumermycin analogs are then added to different wells in a 96-well plate and the cells are incubated overnight. Twenty-four hours later the cell media is spiked with tritiated thymidine and the cells are incubated for an additional 16 hours. The cells are subsequently harvested with a Wallac cell harvester and the amount of tritiated thymidine incorporated is measured using a β scintillation counter.
Set up for BAF proliferation assay was as follows: Spin down cells and wash one time in PBS. Resuspended in BAF cell media without cytokine at 2×10^5 cells/ml. added 100 μl/well or 2×10^4 cells. The compounds were prepared at 2 mg/ml (equivalent to 1.8 nM±5%). Plates were set up so that each condition equaled 1 row of 12 (n=number of wells/row=12). DMSO being utilized as an initial control Compound 5 was prepared in concentrations of 1.6, 16, 163, 450, and 900 nM, and 1.8 μM in DMSO, and as a second control, IL-2 growth factor was added to coumermycin. Two novenamine anologs, Comparative Compounds (CCmpd) 1 and 2, below were also use in this example as control.
The compounds were re-suspended in dimethylsulfoxide (DMSO) at a concentration of 2 mg/ml. […] Next, the cells were washed 2 times with PBS. The re-suspended cells were present at a concentration of 1×10^5 cells /ml in BAF media (RPMI, 10% FCS (fetal calf serum), 1% NEAA (non-essential amino acid), 1% L-G-lu, P/S and Hepes) without IL-2, added 100 μl to well (equal to 1×10^4 cells/well).
The compounds were prepared in as follows: DMSO was used as a control; each of the 5 compounds were combined with DMSO at concentrations of 1.8 μM, 900 nM, 450 nM, 90 nM 9 nM, and 900 nM. As a second control, coumermycin in IL-2 was utilized. Each solution at the aforementioned concentration condition, along with BAF cells, was placed in 1 row (12 wells) of a 96 well plate. Thereafter, 100 μL of compound (twice the concentration) was added to the wells.

[2] = system: STAT5b-GyrB fusion proteins; assay: Inhibition assay in BAF cells, all wells with 90 nM coumermycin; format: cell-based, murine; parameters: unit not given here; conditions: Table 6
Method: An inhibition assay was also conducted for Compounds 1 and 2. For this assay, all wells contained a DMSO concentration of 90 nM of coumermycin. Compounds 1 and 2 were added at concentrations of 1.8 μM, 900 nM, 90 nM and 9 nM. The conditions of the assay were identical to those referenced early in this example, except that one-third of the amount of 3-H thymidine was used.

[3] = Table 2, Example 1, stimulus 1.6 nM, 2×10^4 cells/well
[4] = Table 2, Example 1, stimulus 16.3 nM
[5] = Table 2, Example 1, stimulus 163 nM
[6] = Table 2, Example 1, stimulus 450 nM
[7] = Table 2, Example 1, stimulus 900 nM
[8] = Table 2, Example 1, stimulus 1.8 μM
[9] = Table 3, Example 2, 900 pM, 1×10^4 cells/well

| SMILES | Prolif. (cpm) ([1]; Table 7, Example 5, 900 pM) | Prolif. (cpm) ([1]; Table 7, Example 5, 9 nM) | Prolif. (cpm) ([1]; Table 7, Example 5, 90 nM) | Prolif. (cpm) ([1]; Table 7, Example 5, 450 nM) | Prolif. (cpm) ([1]; Table 7, Example 5, 900 nM) | Prolif. (cpm) ([1]; Table 7, Example 5, 1.8 μM) | Prolif. [1, 3] | Prolif. [1, 4] | Prolif. [1, 5] | Prolif. [1, 6] | Prolif. [1, 7] | Prolif. [1, 8] | Prolif. (cpm) [1, 9] [cpm] | Prolif. (cpm) ([1]; Table 3, Example 2, 9 nM) | Prolif. (cpm) ([1]; Table 3, Example 2, 90 nM) | Prolif. (cpm) ([1]; Table 3, Example 2, 450 nM) | Prolif. (cpm) ([1]; Table 3, Example 2, 900 nM) | Prolif. (cpm) ([1]; Table 3, Example 2, 1.8 μM) | further results |
| --- | --- | --- | --- | --- | --- | --- | --- | --- | --- | --- | --- | --- | --- | --- | --- | --- | --- | --- | --- |
| COC1C(OC(N)=O)C(O)C(Oc2ccc3c(O)c(NC(=O)c4ccc(Oc5ccc(C(=O)Nc6c(O)c7ccc(OC8OC(C)(C)C(OC)C(OC(N)=O)C8O)c(C)c7oc6=O)cc5)cc4)c(=O)oc3c2C)OC1(C)C (centres unmarked) [CCmpd 4, reference compound] | 35624 | 35985 | 36764 | 36763 | 35379 | 31918 | – | – | – | – | – | – | – | – | – | – | – | – | – |
| COC1C(OC(=O)c2ccc(C)[nH]2)C(O)C(Oc2ccc3c(O)c(NC(=O)COCCOCCOCC(=O)Nc4c(O)c5ccc(OC6OC(C)(C)C(OC)C(OC(=O)c7ccc(C)[nH]7)C6O)c(C)c5oc4=O)c(=O)oc3c2C)OC1(C)C (centres unmarked) [Cmpd 5] | – | – | – | – | – | – | 15270 | 14277 | 14139 | 12732 | 12315 | 11751 | – | – | – | – | – | – | – |
| COC1C(OC(=O)c2ccc(C)[nH]2)C(O)C(Oc2ccc3c(O)c(NC(=O)COCCOCC(=O)Nc4c(O)c5ccc(OC6OC(C)(C)C(OC)C(OC(=O)c7ccc(C)[nH]7)C6O)c(C)c5oc4=O)c(=O)oc3c2C)OC1(C)C (centres unmarked) [Cmpd 6] | – | – | – | – | – | – | 14954 | 14710 | 13351 | 12190 | 12872 | 10832 | – | – | – | – | – | – | – |
| COC1C(OC(=O)c2ccc(C)[nH]2)C(O)C(Oc2ccc3c(O)c(NC(=O)c4ccc(C(=O)Nc5c(O)c6ccc(OC7OC(C)(C)C(OC)C(OC(=O)c8ccc(C)[nH]8)C7O)c(C)c6oc5=O)s4)c(=O)oc3c2C)OC1(C)C (centres unmarked) [Cmpd 9] | – | – | – | – | – | – | – | – | – | – | – | – | 16826 | 18126 | 19177 | 20889 | 22210 | 20367 | – |
| COC1C(OC(=O)c2ccc(C)[nH]2)C(O)C(Oc2ccc3c(O)c(NC(=O)c4ccc(C(=O)Nc5c(O)c6ccc(OC7OC(C)(C)C(OC)C(OC(=O)c8ccc(C)[nH]8)C7O)c(C)c6oc5=O)cc4)c(=O)oc3c2C)OC1(C)C (centres unmarked) [Cmpd 8] | – | – | – | – | – | – | – | – | – | – | – | – | 17973 | 19377 | 20715 | 22936 | 23858 | 22772 | – |
| COC1C(OC(N)=O)C(O)C(Oc2ccc3c(O)c(NC(=O)c4cc(=O)cc(C(=O)Nc5c(O)c6ccc(OC7OC(C)(C)C(OC)C(OC(N)=O)C7O)c(C)c6oc5=O)o4)c(=O)oc3c2C)OC1(C)C (centres unmarked) [CCmpd 3, reference compound] | 32299 | 33921 | 33671 | 33712 | 31968 | 28434 | – | – | – | – | – | – | – | – | – | – | – | – | – |
| COC1C(OC(N)=O)C(O)C(Oc2ccc3c(O)c(NC(=O)COCCOCCOCC(=O)Nc4c(O)c5ccc(OC6OC(C)(C)C(OC)C(OC(N)=O)C6O)c(C)c5oc4=O)c(=O)oc3c2C)OC1(C)C (centres unmarked) [CCmpd 2, reference compound] | – | – | – | – | – | – | 14761 | 14459 | 14516 | 13568 | 12281 | 11676 | – | – | – | – | – | – | – |
| COC1C(OC(=O)c2ccc(C)[nH]2)C(O)C(Oc2ccc3c(O)c(NC(=O)c4c[nH]c(C(=O)Nc5c(O)c6ccc(OC7OC(C)(C)C(OC)C(OC(=O)c8ccc(C)[nH]8)C7O)c(C)c6oc5=O)c4C)c(=O)oc3c2C)OC1(C)C (centres unmarked) [Cou., coumermycin] | 36503 | 44455 | 51248 | 60293 | 64831 | 68728 | 16137 | 16261 | 16836 | 18842 | 21057 | 23199 | 18071 | 20551 | 25219 | 27515 | 30752 | 30664 | Prolif. ([1]; Table 4, Example 3, 900 pM): 7422; Prolif. ([1]; Table 4, Example 3, 9 nM): 8792; Prolif. ([1]; Table 4, Example 3, 90 nM): 9860; Prolif. ([1]; Table 4, Example 3, 450 nM): 10832; Prolif. ([1]; Table 4, Example 3, 900 nM): 11470; Prolif. ([1]; Table 4, Example 3, 1.8 μM): 12308; Prolif. (cpm) ([1]; Table 5, Example 4, 900 pM): 6063 cpm; Prolif. (cpm) ([1]; Table 5, Example 4, 9 nM): 6750 cpm; Prolif. (cpm) ([1]; Table 5, Example 4, 90 nM): 7595 cpm; Prolif. (cpm) ([1]; Table 5, Example 4, 450 nM): 8457 cpm; Prolif. (cpm) ([1]; Table 5, Example 4, 900 nM): 8636 cpm; Prolif. (cpm) ([1]; Table 5, Example 4, 1.8 μM): 8610 cpm; Prolif. ([2]; Cou. 90 nM with DMSO in place of inhibitor): 7595 |
| COC1C(OC(N)=O)C(O)C(Oc2ccc3c(O)c(NC(=O)COCCOCC(=O)Nc4c(O)c5ccc(OC6OC(C)(C)C(OC)C(OC(N)=O)C6O)c(C)c5oc4=O)c(=O)oc3c2C)OC1(C)C (centres unmarked) [CCmpd 1, reference compound] | – | – | – | – | – | – | 15741 | 14691 | 13628 | 12465 | 11935 | 11057 | – | – | – | – | – | – | – |
| COC1C(OC(=O)c2ccc(C)[nH]2)C(O)C(Oc2ccc3c(O)c(NC(=O)c4cncc(C(=O)Nc5c(O)c6ccc(OC7OC(C)(C)C(OC)C(OC(=O)c8ccc(C)[nH]8)C7O)c(C)c6oc5=O)c4)c(=O)oc3c2C)OC1(C)C (centres unmarked) [Cmpd 4] | – | – | – | – | – | – | – | – | – | – | – | – | 20204 | 19290 | 19731 | 20726 | 22817 | 23135 | – |
| COC1C(OC(=O)c2ccc(C)[nH]2)C(O)C(Oc2ccc3c(O)c(NC(=O)c4cc(C(=O)Nc5c(O)c6ccc(OC7OC(C)(C)C(OC)C(OC(=O)c8ccc(C)[nH]8)C7O)c(C)c6oc5=O)[nH]n4)c(=O)oc3c2C)OC1(C)C (centres unmarked) [Cmpd 7] | – | – | – | – | – | – | – | – | – | – | – | – | 16520 | 16599 | 17690 | 20553 | 20619 | 20207 | – |
| COC1C(OC(=O)c2ccc(C)[nH]2)C(O)C(Oc2ccc3c(O)c(NC(=O)c4cc(=O)cc(C(=O)Nc5c(O)c6ccc(OC7OC(C)(C)C(OC)C(OC(=O)c8ccc(C)[nH]8)C7O)c(C)c6oc5=O)o4)c(=O)oc3c2C)OC1(C)C (centres unmarked) [Cmpd 1] | 31865 | 34279 | 33933 | 35212 | 33301 | 31029 | – | – | – | – | – | – | – | – | – | – | – | – | Prolif. ([1]; Table 4, Example 3, 900 pM): 7156; Prolif. ([1]; Table 4, Example 3, 9 nM): 7653; Prolif. ([1]; Table 4, Example 3, 90 nM): 7487; Prolif. ([1]; Table 4, Example 3, 450 nM): 7209; Prolif. ([1]; Table 4, Example 3, 900 nM): 7092; Prolif. ([1]; Table 4, Example 3, 1.8 μM): 6397; Prolif. ([2]; Cou. 90 nM plus inhibitor 9 nM): 7713; Prolif. ([2]; Cou. 90 nM plus inhibitor 90 nM): 7683; Prolif. ([2]; Cou. 90 nM plus inhibitor 900 nM): 7597; Prolif. ([2]; Cou. 90 nM plus inhibitor 1800 nM): 7271 |
| COC1C(OC(=O)c2ccc(C)[nH]2)C(O)C(Oc2ccc3c(O)c(NC(=O)c4ccc(C(=O)Nc5c(O)c6ccc(OC7OC(C)(C)C(OC)C(OC(=O)c8ccc(C)[nH]8)C7O)c(C)c6oc5=O)nc4)c(=O)oc3c2C)OC1(C)C (centres unmarked) [Cmpd 3] | – | – | – | – | – | – | – | – | – | – | – | – | 16313 | 16767 | 19920 | 22221 | 22824 | 21389 | – |
